Results published in US20090270342A1, “IMMUNOREGULATORY AGENT” (priority 2006, published 2009).

Test system: Peyer's patch cells
Assay: Production of IgA, IgG and cytokines by Peyer's patch cells of mice fed lactosucrose (Experiment 3)
Type: in vivo
Conditions: for IFN-γ produced by Peyer's patch cells / IL-4 produced by Peyer's patch cells / IL-6 produced by Peyer's patch cells / IgA produced by Peyer's patch cells / IgG produced by Peyer's patch cells / TGF-β produced by Peyer's patch cells / IL-10 produced by Peyer's patch cells: four weeks
Method: In order to investigate what type of immunopathologically-mediated tissue exerts the enhancing effect on gut immunity, the amounts of IgA, IgG, and various cytokines were measured. Similarly as in Experiment 1, female BALB/c mice (six weeks old) were preliminary reared for one week on “AIN-93G”, the same standard purified diet as used in Experiment 1. Successively, “LS-90P”, a saccharide composition comprising 91.8% (w/w), on a dry solid basis, of lactosucrose commercialized by ENSUIKO Sugar Refining Co., Ltd., Tokyo, Japan, was incorporated into the above purified diet, in which corn starch equal to the amount of the saccharide composition comprising lactosucrose had been removed, to give a lactosucrose content of 2% (w/w) or 5% (w/w), and five mice/group were allowed to ingest the resulting test diet freely. Mice, allowed to ingest “AIN-93G”, as the standard purified diet, were used as control. At four weeks after starting the administration of the test diet, Peyer's patch and intestinal lymph nodes were respectively removed from the mice and cut using a scissor. Then, the resultants were respectively treated in 0.2% (w/v) aqueous collagenase solution at 37° C. for 30 min, and filtrated using a cell strainer to obtain cell suspensions. Each cell suspension was centrifuged to collect cells and the resulting cells were suspended into a 45% (v/v) solution of “PERCOLL”, commercialized by GE Healthcare, to make into a cell suspension. Each resulting suspension was successively placed on a 75% (v/v) “PERCOLL” solution and centrifuged at 1,000×g for 10 min. Cells in a boundary phase between 45% (v/v) and 75% (v/v) “PERCOLL” solution were collected and suspended in RPMI1640 medium comprising 10% FCS and 10 mM HEPES, and the cell concentration was adjusted to 1×10^6 cells/ml. The resulting cell suspension was placed in a 24-well plate to give one ml/well each. Then, 2 μg/ml of Concanavaline A (Con A) as a stimulator to T-cell or 10 μg/ml of lipopolysaccharide (LPS) as a stimulator to B-cell and macrophage cell was admixed with the cell suspension, and then the cells were cultured at 37° C. for 48 hours using 5% (v/v) carbon dioxide gas. A culture supernatant was collected from each well, and the amounts of IgA, IgG, IFN-γ, interleukin-4 (IL-4), IL-6, interleukin-10 (IL-10), and TGF-β were measured by ELISA using an anti-mouse IgA antibody, anti-mouse IgG antibody, anti-mouse IFN-γ antibody (commercialized by Pepro Tech EC. Ltd.), anti-mouse IL-4 antibody (commercialized by R&D Systems), anti-mouse IL-6 antibody (commercialized by R&D Systems), anti-mouse IL-10 antibody (commercialized by R&D Systems), and anti-mouse TGF-β antibody (commercialized by Promega Co., Wisconsin, USA), and the average values of those from five mice were determined. The results for Peyer's patch cells and intestinal lymph node cells are respectively in Tables 3 and 4. The percentages in parentheses in the tables mean a relative value to the amount of IgA, IgG, IFN-γ, IL-4, IL-6, IL-10 or TGF-β produced by Peyer's patch cells or intestinal lymph node cells from the control mice.

[1] = Lactosucrose 2% (w/w) diet, Con A
[2] = Lactosucrose 2% (w/w) diet, LPS
[3] = Lactosucrose 5% (w/w) diet, Con A
[4] = Lactosucrose 5% (w/w) diet, LPS

Question: Which results are given for `OC[C@H]1O[C@@H](O[C@H]2[C@H](O)[C@@H](O)[C@@H](O[C@]3(CO)O[C@H](CO)[C@@H](O)[C@@H]3O)O[C@@H]2CO)[C@H](O)[C@@H](O)[C@H]1O` [Lactosucrose, β-D-galactosyl-(1,4)-α-D-glucosyl-(1,2)-β-D-fructoside]?
Answer: IFN-γ produced by Peyer's patch cells [1]: 11 ± 5.0 ng/mL; IL-4 produced by Peyer's patch cells [1]: 22 ± 0.58 pg/mL; IL-6 produced by Peyer's patch cells [1]: 35 ± 14 pg/mL; IgA produced by Peyer's patch cells [1]: 1.9 ± 0.49 µg/mL; IgG produced by Peyer's patch cells [1]: 110 ± 28 ng/mL; TGF-β produced by Peyer's patch cells [1]: 0.40 ± 0.24 ng/mL; IL-10 produced by Peyer's patch cells (Lactosucrose 2% (w/w) diet, Con A, DL: Detection limit): Below DL*; IFN-γ produced by Peyer's patch cells [2]: 1.2 ± 0.44 ng/mL; IL-4 produced by Peyer's patch cells [2]: 15 ± 1.6 pg/mL; IL-6 produced by Peyer's patch cells [2]: 250 ± 27 pg/mL; IL-10 produced by Peyer's patch cells [2]: 200 ± 57 pg/mL; IgA produced by Peyer's patch cells [2]: 1.9 ± 1.8 µg/mL; IgG produced by Peyer's patch cells [2]: 110 ± 90 ng/mL; TGF-β produced by Peyer's patch cells [2]: 1.3 ± 0.20 ng/mL; IFN-γ produced by Peyer's patch cells, relative value to control (Lactosucrose 2% (w/w), Con A): (100%); IL-4 produced by Peyer's patch cells, relative value to control (Lactosucrose 2% (w/w), Con A): (105%); IL-6 produced by Peyer's patch cells, relative value to control (Lactosucrose 2% (w/w), Con A): (106%); IgA produced by Peyer's patch cells, relative value to control (Lactosucrose 2% (w/w), Con A): (127%); IgG produced by Peyer's patch cells, relative value to control (Lactosucrose 2% (w/w), Con A): (151%); TGF-β produced by Peyer's patch cells, relative value to control (Lactosucrose 2% (w/w), Con A): (133%); IFN-γ produced by Peyer's patch cells, relative value to control (Lactosucrose 2% (w/w), LPS): (146%); IL-4 produced by Peyer's patch cells, relative value to control (Lactosucrose 2% (w/w), LPS): (107%); IL-6 produced by Peyer's patch cells, relative value to control (Lactosucrose 2% (w/w), LPS): (114%); IL-10 produced by Peyer's patch cells, relative value to control (Lactosucrose 2% (w/w), LPS): (95%); IgA produced by Peyer's patch cells, relative value to control (Lactosucrose 2% (w/w), LPS): (216%); IgG produced by Peyer's patch cells, relative value to control (Lactosucrose 2% (w/w), LPS): (244%); TGF-β produced by Peyer's patch cells, relative value to control (Lactosucrose 2% (w/w), LPS): (100%); IFN-γ produced by Peyer's patch cells [3]: 21 ± 13 ng/mL; IL-4 produced by Peyer's patch cells [3]: 20 ± 0.74 pg/mL; IL-6 produced by Peyer's patch cells [3]: 84 ± 39 pg/mL; IgA produced by Peyer's patch cells [3]: 4.5 ± 2.6 µg/mL; IgG produced by Peyer's patch cells [3]: 270 ± 120 ng/mL; TGF-β produced by Peyer's patch cells [3]: 0.66 ± 0.13 ng/mL; IL-10 produced by Peyer's patch cells (Lactosucrose 5% (w/w) diet, Con A, DL: Detection limit): Below DL*; IFN-γ produced by Peyer's patch cells [4]: 3.0 ± 2.1 ng/mL; IL-4 produced by Peyer's patch cells [4]: 14 ± 0.88 pg/mL; IL-6 produced by Peyer's patch cells [4]: 470 ± 250 pg/mL; IL-10 produced by Peyer's patch cells [4]: 160 ± 56 pg/mL; IgA produced by Peyer's patch cells [4]: 7.0 ± 4.0 µg/mL; IgG produced by Peyer's patch cells [4]: 370 ± 150 ng/mL; TGF-β produced by Peyer's patch cells [4]: 1.2 ± 0.090 ng/mL; IFN-γ produced by Peyer's patch cells, relative value to control (Lactosucrose 5% (w/w), Con A): (191%); IL-4 produced by Peyer's patch cells, relative value to control (Lactosucrose 5% (w/w), Con A): (95%); IL-6 produced by Peyer's patch cells, relative value to control (Lactosucrose 5% (w/w), Con A): (255%); IgA produced by Peyer's patch cells, relative value to control (Lactosucrose 5% (w/w), Con A): (300%); IgG produced by Peyer's patch cells, relative value to control (Lactosucrose 5% (w/w), Con A): (370%); TGF-β produced by Peyer's patch cells, relative value to control (Lactosucrose 5% (w/w), Con A): (220%); IFN-γ produced by Peyer's patch cells, relative value to control (Lactosucrose 5% (w/w), LPS): (366%); IL-4 produced by Peyer's patch cells, relative value to control (Lactosucrose 5% (w/w), LPS): (100%); IL-6 produced by Peyer's patch cells, relative value to control (Lactosucrose 5% (w/w), LPS): (214%); IL-10 produced by Peyer's patch cells, relative value to control (Lactosucrose 5% (w/w), LPS): (76%); IgA produced by Peyer's patch cells, relative value to control (Lactosucrose 5% (w/w), LPS): (795%); IgG produced by Peyer's patch cells, relative value to control (Lactosucrose 5% (w/w), LPS): (822%); TGF-β produced by Peyer's patch cells, relative value to control (Lactosucrose 5% (w/w), LPS): (92%)
